Source: US20240425523A1, “Compounds for the Degradation of EGFR Kinase” (Beigene Switzerland GMBH, priority 2023, published 2024)

Tests used:
Format in all cases: cell-based
[1] = target: T1, EGFR L858R (BaF3-L858R cells) (Homo sapiens, UniProt P00533, L858R); experiment: Cell degradation of EGFR, HTRF assay, BaF3-L858R cells; settings: 16 h treatment; for DC50: EGFR degradation; for Dmax: maximum percentage of degradation
T1 construct: host or cells: BaF3
In short: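 EGFR L858R levels measured by HTRF antibody pair in lysed BaF3-L858R cells after 16 h compound exposure (8-point 5-fold series from 10 uM final, 37° C). Degradation is relative to DMSO-only cells; DC50 fitted with Hill equation, Dmax taken as the largest percent loss.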

[2] = target: T2, EGFR-L858R/C797S (H1975-clone #8 cells) (Homo sapiens, UniProt P00533, C797S/L858R); experiment: Cell degradation of EGFR, HTRF assay, H1975-clone#8 (L858R/C797S) cells; settings: 16 h treatment; for DC50: EGFR degradation; for Dmax: maximum percentage of degradation
T2 construct: expressed in transfected cells; host or cells: H1975 (endogenous EGFR knocked out, clone #8)

[3] = target: T3, p-EGFR L858R (BaF3-L858R cells) (Homo sapiens, UniProt P00533, L858R); experiment: Cell p-EGFR inhibition assay, HTRF, BaF3-L858R cells; settings: 16 h treatment; for Imax (%): maximum percentage of pEGFR inhibition; for IC50: pEGFR inhibition
T3 construct: host or cells: BaF3
In short: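 BaF3-L858R cells treated 16 h at 37 °C, 5% CO2 with compound from 10 uM top, 5-fold dilutions, 8 doses, in 0.1% DMSO medium. Lysates read overnight by HTRF p-EGFR antibodies; IC50 fitted to four-parameter curve against DMSO high control.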

[4] = target: p-EGFR Del19/C797S (H1975-clone #23 cells) (Homo sapiens, UniProt P00533); experiment: Cell p-EGFR inhibition assay, HTRF, H1975-clone#23 (DEL19/C797S) cells; settings: 16 h treatment; for Imax (%): maximum percentage of pEGFR inhibition; for IC50: pEGFR inhibition
In short: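 Phospho-EGFR read by overnight HTRF on lysates, normalized to DMSO-treated high control; IC50, Hill slope and Imax fitted. Compounds were applied for 16 h (10 uM top, 5-fold steps, 8 doses) to an H1975 single clone carrying only exogenous Del19/C797S EGFR after sgRNA knockout of endogenous copies.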

Row | DC50 [1] [nM] | Dmax [1] [%] | DC50 [2] [nM] | Dmax [2] [%] | Imax (%) [3] [%] | IC50 [3] [nM] | Imax (%) [4] [%] | IC50 [4] [nM] | SMILES
1 | 1.04 | 91.9 | 1.7 | 87.5 | 88.5 | 1.5 | 100.67 | 1.4 | COC[C@H]1CN(c2ccc3c(c2)N2C[C@@H]4CC[C@H](COc5c(c(C)nn5C)-c5cc(cc(C)n5)C(=O)/N=C/2N3)C4)CCN1C1CCN(c2ccc(NC3CCC(=O)NC3=O)cc2C)CC1 (stereo partly drawn) [Example 207, 3-((4-(4-((R)-2-(methoxymethyl)-4-((7R,7^3S,E)-1^1,1^3,2^6-trimethyl-3-oxo-5^2,5^3-dihydro-1^1H,5^1H-9-oxa-4-aza-5(2,1)-benzo[d]imidazola-2(2,4)-pyridina-1(4,5)-pyrazola-7(1,3)-cyclopentanacyclononaphane-5^6-yl)piperazin-1-yl)piperidin-1-yl)-3-methylphenyl)amino)piperidine-2,6-dione]
2 | 2.96 | 80.9 | 3.07 | 81.1 | 100.64 | 8.76 | 102.22 | 2.56 | Cc1cc2cc(n1)-c1c(C)nn(C)c1OC[C@H]1CC[C@H](C1)CN1/C(=N/C2=O)Nc2ccc(N3CCC(C)(CN(C)C4CCN(c5cc(F)c([C@H]6CCC(=O)NC6=O)c(F)c5)CC4)CC3)cc21 [Example 168, (R)-3-(2,6-difluoro-4-(4-(methyl((4-methyl-1-((7^1R,7^3S,E)-1^1,1^3′2^6-trimethyl-3-oxo-5^2′5^3-dihydro-1^1H,5^1H-9-oxa-4-aza-5(2,1)-benzo[d]imidazola-2(2,4)-pyridina-1(4,5)-pyrazola-7(1,3)-cyclopentanacyclononaphane-5^6-yl)piperidin-4-yl)methyl)amino)piperidin-1-yl)phenyl)piperidine-2,6-dione]
3 | 3.63 | 84.6 | 3.3 | 80.2 | 99.7 | 6.4 | 99.8 | 1.1 | COC[C@H]1CN(c2ccc3c(c2)N2CC4CC[C@H](COc5c(cnn5C)-c5cc(cc(C)n5)C(=O)/N=C/2N3)C4)CCN1C1CCN(c2cc(F)c(C3CCC(=O)NC3=O)nc2C)CC1 (stereo partly drawn) [Example 71, 3-(5-(4-((R)-4-((7^1R,7^3S,E)-1^1,2^6-dimethyl-3-oxo-5^2,5^3-dihydro-1^1H,5^1H-9-oxa-4-aza-5(2,1)-benzo[d]imidazola-2(2,4)-pyridina-1(4,5)-pyrazola-7(1,3)-cyclopentanacyclononaphane-5^6-yl)-2-(methoxymethyl)piperazin-1-yl)piperidin-1-yl)-3-fluoro-6-methylpyridin-2-yl)piperidine-2,6-dione]
4 | 1.06 | 92.5 | 4.8 | 87.9 | 92 | 9.25 | 100.52 | 2.48 | Cc1cc2cc(n1)-c1c(C)nn(C)c1OC[C@H]1CC[C@H](C1)CN1/C(=N/C2=O)Nc2ccc(N3CCN(C4CCN(c5cc(F)c([C@H]6CCC(=O)NC6=O)c(F)c5)CC4)C[C@H]3CF)cc21 [Example 202, (R)-3-(2,6-difluoro-4-(4-((S)-3-(fluoromethyl)-4-((7R,7^3S,E)-1^1,1^3,2^6-trimethyl-3-oxo-5^2,5^3-dihydro-1^1H,5^1H-9-oxa-4-aza-5(2,1)-benzo[d]imidazola-2(2,4)-pyridina-1(4,5)-pyrazola-7(1,3)-cyclopentanacyclononaphane-5^6-yl)piperazin-1-yl)piperidin-1-yl)phenyl)piperidine-2,6-dione]
5 | 5.09 | 84.8 | 0.909 | 85.6 | 100 | 6.2 | 103.44 | 2.74 | COC[C@H]1CN(c2cc3c(cc2C)N/C2=N\C(=O)c4cc(C)nc(c4)-c4c(C)nn(C)c4OC[C@H]4CC[C@H](C4)CN23)CCN1C1CCN(c2cc(F)c([C@H]3CCC(=O)NC3=O)c(F)c2)CC1 [Example 172, (R)-3-(2,6-difluoro-4-(4-((R)-2-(methoxymethyl)-4-((7^1R,7^3S,E)-1^1,1^3,2^6° 5^5-tetramethyl-3-oxo-5^2,5^3-dihydro-1^1H,5^1H-9-oxa-4-aza-5(2,1)-benzo[d]imidazola-2(2,4)-pyridina-1(4,5)-pyrazola-7(1,3)-cyclopentanacyclononaphane-5^6-yl)piperazin-1-yl)piperidin-1-yl)phenyl)piperidine-2,6-dione]
6 | 4.23 | 78 | 4.91 | 83 | 97.5 | 11.6 | 99.7 | 3.1 | COC[C@@H]1CN(c2ccc3c(c2)N2CC4CC[C@H](COc5c(c(C(F)F)nn5C)-c5cc(cc(C)n5)C(=O)/N=C/2N3)C4)CCN1C1CCN(c2cc(F)c([C@H]3CCC(=O)NC3=O)c(F)c2)CC1 [Example 85, (R)-3-(4-(4-((S)-4-((7^1R,7^3S,E)-1^3-(difluoromethyl)-1^1,2^6-dimethyl-3-oxo-5^2,5^3-dihydro-1^1H,5^1H-9-oxa-4-aza-5(2,1)-benzo[d]imidazola-2(2,4)-pyridina-1(4,5)-pyrazola-7(1,3)-cyclopentanacyclononaphane-5^6-yl)-2-(methoxymethyl)piperazin-1-yl)piperidin-1-yl)-2,6-difluorophenyl)piperidine-2,6-dione]
7 | 0.99 | 90.4 | 1 | 86.2 | 93.3 | 3.2 | 101.2 | 1.7 | Cc1cc2cc(n1)-c1c(C)nn(C)c1OC[C@H]1CCC(C1)CN1/C(=N/C2=O)Nc2ccc(N3CCN(C4CCN(c5cc(F)c([C@H]6CCC(=O)NC6=O)c(F)c5)CC4)CC3)cc21 [Example 74, (R)-3-(2,6-difluoro-4-(4-(4-((7^1R,7^3S,E)-1^1,1^3,2^6-trimethyl-3-oxo-5^2,5^3-dihydro-1^1H,5^1H-9-oxa-4-aza-5(2,1)-benzo[d]imidazola-2(2,4)-pyridina-1(4,5)-pyrazola-7(1,3)-cyclopentanacyclononaphane-5^6-yl)piperazin-1-yl)piperidin-1-yl)phenyl)piperidine-2,6-dione]
8 | 0.4 | 91.6 | 0.64 | 76.6 | 92.8 | 3.2 | 101.7 | 0.6 | Cc1cc2cc(n1)-c1c(C)nn(C)c1OC[C@H]1CCC(C1)CN1/C(=N/C2=O)Nc2ccc(N3CCN(C4CCN(c5ccc(C6CCC(=O)NC6=O)nc5C)CC4)CC3)cc21 (some centres unmarked) [Example 72, 3-(6-methyl-5-(4-(4-((7^1R,7^3S,E)-1^1,1^3,2^6-trimethyl-3-oxo-5^2,5^3-dihydro-1^1H,5^1H-9-oxa-4-aza-5(2,1)-benzo[d]imidazola-2(2,4)-pyridina-1(4,5)-pyrazola-7(1,3)-cyclopentanacyclononaphane-5^6-yl)piperazin-1-yl)piperidin-1-yl)pyridin-2-yl)piperidine-2,6-dione]
9 | 5.75 | 90.3 | 3.05 | 85.8 | 92.5 | 1.22 | 99.83 | 0.539 | Cc1cc2cc(n1)-c1c(C)nn(C)c1OC[C@H]1CC[C@H](C1)CN1/C(=N/C2=O)Nc2ccc(N3CCN(CC4CN(c5cc(F)c([C@H]6CCC(=O)NC6=O)c(F)c5)C4)[C@H](C(F)F)C3)cc21 [Example 205, (R)-3-(4-(3-(((S)-2-(difluoromethyl)-4-((7R,7^3S,E)-1^1,1^3,2^6-trimethyl-3-oxo-5^2,5^3-dihydro-1^1H,5^1H-9-oxa-4-aza-5(2,1)-benzo[d]imidazola-2(2,4)-pyridina-1(4,5)-pyrazola-7(1,3)-cyclopentanacyclononaphane-5^6-yl)piperazin-1-yl)methyl)azetidin-1-yl)-2,6-difluorophenyl)piperidine-2,6-dione]
10 | 4.28 | 95.2 | 4.31 | 91.4 | 98.39 | 11.5 | 103.01 | 3.94 | COC[C@@H]1CN(c2cc3c(cc2C)N/C2=N\C(=O)c4cc(C)nc(c4)-c4c(C)nn(C)c4OC[C@H]4CC[C@H](C4)CN23)CCN1C1CCN(c2cc(F)c([C@H]3CCC(=O)NC3=O)c(F)c2)CC1 [Example 173, (R)-3-(2,6-difluoro-4-(4-((S)-2-(methoxymethyl)-4-((7^1R,7^3S,E)-1^1,1^3,2^6,5^5-tetramethyl-3-oxo-5^2,5^3-dihydro-1^1H,5^1H-9-oxa-4-aza-5(2,1)-benzo[d]imidazola-2(2,4)-pyridina-1(4,5)-pyrazola-7(1,3)-cyclopentanacyclononaphane-5^6-yl)piperazin-1-yl)piperidin-1-yl)phenyl)piperidine-2,6-dione]
